Toxic doses and inconclusive results are not listed. Rule for the calls: active = survival T/C of 150% or more; inactive = T/C below 125% in these data.
System: BDF1 mice, B16 melanoma ip, median survival T/C
Assay: NCI In Vivo Anticancer Drug Screen. Data for tumor model B16 Melanoma (intraperitoneal) in B6D2F1 (BDF1) mice
Settings: endpoint: median survival time, higher = longer survival
Summary of the method: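 Tumor-bearing mice received test compound or vehicle. Survival or tumor size was then measured in both groups. The treated-group figure was divided by the control-group figure.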

[1] = dose: 100.0 mg/kg/injection, schedule: Q04DX003 (ip), vehicle: Klucel (hydroxypropylcellulose) (HPC)
[2] = dose: 200.0 mg/kg/injection, schedule: Q04DX003 (ip), vehicle: Klucel (hydroxypropylcellulose) (HPC)
[3] = dose: 400.0 mg/kg/injection, schedule: Q04DX003 (ip), vehicle: Klucel (hydroxypropylcellulose) (HPC)
[4] = dose: 100.0 mg/kg/injection, schedule: Q01DX009 (ip), vehicle: Klucel (hydroxypropylcellulose) (HPC)
[5] = dose: 200.0 mg/kg/injection, schedule: Q01DX009 (ip), vehicle: Klucel (hydroxypropylcellulose) (HPC)
[6] = dose: 400.0 mg/kg/injection, schedule: Q01DX009 (ip), vehicle: Klucel (hydroxypropylcellulose) (HPC)

Measured: T/C

OCCN1CCN(CC/C=C2/c3ccccc3Sc3ccc(C(F)(F)F)cc32)CC1
inactive: dose: 0.25 mg/kg/injection, schedule: Q01DX009 (ip), vehicle: saline 97 % of control | dose: 0.5 mg/kg/injection, schedule: Q01DX009 (ip), vehicle: saline 106 % of control | dose: 1.0 mg/kg/injection, schedule: Q01DX009 (ip), vehicle: saline 111 % of control | dose: 2.0 mg/kg/injection, schedule: Q01DX009 (ip), vehicle: saline 105 % of control

COC(=O)C1C2OC(C(Br)C2Br)C1C(=O)OC (centres undefined)
inactive: [1] 103 % of control | [2] 105 % of control | [3] 101 % of control

CCNC(C)(C)C(SSS)c1ccco1 (centres undefined)
inactive: dose: 12.5 mg/kg/injection, schedule: Q01DX009 (ip), vehicle: Klucel (hydroxypropylcellulose) (HPC) 98 % of control | dose: 25.0 mg/kg/injection, schedule: Q01DX009 (ip), vehicle: Klucel (hydroxypropylcellulose) (HPC) 94 % of control | dose: 50.0 mg/kg/injection, schedule: Q01DX009 (ip), vehicle: Klucel (hydroxypropylcellulose) (HPC) 104 % of control

COc1ccc(NC(=O)Oc2cc(C)cc(C)c2)cc1
inactive: [4] 96 % of control | [1] 112 % of control | [5] 96 % of control | [2] 106 % of control | [6] 89 % of control | [3] 112 % of control

COc1ccc(NC(=O)Nc2ccc(C(C)C)cc2)cc1
inactive: [4] 94 % of control | [5] 94 % of control | [6] 97 % of control
